Values quoted from earlier work, collected in US20070042049A1, “Nanoparticulate benidipine compositions” (Elan Pharma International, Limited, priority 2005, published 2007).
Counter-ions that a name gives are not always drawn. Like-named read-outs stand apart in the source and are kept apart here.

- solubility (in acetic anhydride): slightly soluble
- solubility (in dimethylformamide): freely soluble
- solubility (in ethanol): soluble
- solubility (in formic acid): very soluble
- solubility (in methanol): soluble
- solubility (in water): relatively insoluble
Structure (SMILES): COC(=O)C1=C(C)NC(C)=C(C(=O)O[C@@H]2CCCN(Cc3ccccc3)C2)C1c1cccc([N+](=O)[O-])c1 (stereo in doubt) [Benidipine hydrochloride]
